Measured values from US20150148235A1, “HERBICIDE-RESISTANT SUNFLOWER PLANTS WITH MULTIPLE HERBICIDE RESISTANT ALLELES OF AHASL1 AND METHODS OF USE” (NIDERA S.A., priority 2013, published 2015).
Marks after values point to notes of the source that are not given here.

System: sunflower lines and hybrids carrying A122T and/or A205V AHASL1 alleles
Experiment: Greenhouse whole-plant response to imazapyr doses (height, Phytotoxicity Index, dry biomass), Example 2
Type: in vivo, Helianthus annuus
Conditions: 14 DAT; for Biomass weight reduction: heterozygous A122T/A205V
Experimental: Seeds were sown in Petri dishes and, after germination, plantlets were transplanted to pots of 10 cm of diameter in a potting media consisting of equal parts of vermiculite, soil and sand. Plants were grown in a greenhouse under natural light conditions supplemented with 400 W sodium halide lamps to provide a 16 hr daylength. Day/night temperatures were 25 and 20° C., respectively. At the V2-V4 stage (Schneiter & Miller (1981) Crop Sci. 21:901-903) 10 plants of each genotype were randomly assigned to each treatment consisting of eight imazapyr doses (0, 40, 80, 160, 240, 320, 400 and 480 g ai/ha, corresponding to untreated, 0.5×, 1×, 2×, 3×, 4×, 5× and 6×, respectively), and a zero-time biomass determination. Experiment was arranged as a randomized block design with a full factorial (sunflower line×treatment) arrangement of treatments and 10 replications.
On the day of herbicide application ten plants of each genotype were cut at the cotyledonal node and dried at 60° C. for 48 hrs for zero-time dried weight determination.
The remaining plants were maintained for 14 days after imazapyr treatment (DAT) and their height, Phytotoxicity Index (PI) and above ground dry biomass were determined Height was determined as the distance between the cotyledonal node and the apex of each plant. Above ground biomass data from each line were converted to biomass accumulation after application by subtracting the appropriate average zero-time biomass from each sample. Dry biomass data were converted to percentages of the untreated control plants within each line to allow direct comparisons between groups.

[1] = H4 (A122T/A205V hybrid), 4x=320 g ai/ha
[2] = L1 (A205V line), 0.5x=40 g ai/ha
[3] = L1 (A205V line), 3x=240 g ai/ha
[4] = L2 (A205V line), 5x=400 g ai/ha
[5] = L3 (cmsGM40, A122T line), 2x=160 g ai/ha
[6] = L3 (cmsGM40, A122T line), 4x=320 g ai/ha
[7] = L4 (A122T line), 0.5x=40 g ai/ha
[8] = L4 (A122T line), 2x=160 g ai/ha
[9] = L4 (A122T line), 3x=240 g ai/ha
[10] = L5 (WT susceptible), 1x=80 g ai/ha
[11] = L5 (WT susceptible), 2x=160 g ai/ha
[12] = L5 (WT susceptible), 3x=240 g ai/ha
[13] = L5 (WT susceptible), 4x=320 g ai/ha
[14] = L5 (WT susceptible), 5x=400 g ai/ha
[15] = L5 (WT susceptible), 6x=480 g ai/ha
[16] = mean of A122T genotypes (H2,L3,L4), 2x=160 g ai/ha
[17] = mean of A122T genotypes (H2,L3,L4), 3x=240 g ai/ha

Compound: CC(C)C1(C)N=C(c2ncccc2C(=O)O)NC1=O (stereo not drawn) [imazapyr]
- biomass accumulation (dry) [1]: 85.0 % of untreated
- plant height [1]: 95.0 % of untreated
- Phytotoxicity Index (scale 0-9) (H4 (A122T/A205V hybrid), 5x=400 g ai/ha): 0.2
- Phytotoxicity Index (scale 0-9) (H4 (A122T/A205V hybrid), 6x=480 g ai/ha): 0.0
- Phytotoxicity Index (scale 0-9) [2]: 0
- plant height [2]: 100.0 % of untreated
- Phytotoxicity Index (scale 0-9) (L1 (A205V line), 1x=80 g ai/ha): 0
- plant height (L1 (A205V line), 1x=80 g ai/ha): 100.0 % of untreated
- Phytotoxicity Index (scale 0-9) (L1 (A205V line), 2x=160 g ai/ha): 1.6
- Phytotoxicity Index (scale 0-9) [3]: 5.1
- plant height [3]: 50.0 % of untreated
- Phytotoxicity Index (scale 0-9) (L1 (A205V line), 4x=320 g ai/ha): 8.4
- Phytotoxicity Index (scale 0-9) (L1 (A205V line), 5x=400 g ai/ha): 8.9
- Phytotoxicity Index (scale 0-9) (L1 (A205V line), 6x=480 g ai/ha): 8.9
- Phytotoxicity Index (scale 0-9) (L2 (A205V line), 0.5x=40 g ai/ha): 0
- Phytotoxicity Index (scale 0-9) (L2 (A205V line), 1x=80 g ai/ha): 0
- biomass accumulation (dry) (L2 (A205V line), 1x=80 g ai/ha): 85.0 % of untreated
- Phytotoxicity Index (scale 0-9) (L2 (A205V line), 2x=160 g ai/ha): 3.1
- Phytotoxicity Index (scale 0-9) (L2 (A205V line), 3x=240 g ai/ha): 3.9
- Phytotoxicity Index (scale 0-9) (L2 (A205V line), 4x=320 g ai/ha): 5.9
- Phytotoxicity Index (scale 0-9) [4]: 6.9
- plant height [4]: 26.0 % of untreated
- Phytotoxicity Index (scale 0-9) (L2 (A205V line), 6x=480 g ai/ha): 6.7
- Phytotoxicity Index (scale 0-9) (L3 (cmsGM40, A122T line), 0.5x=40 g ai/ha): 0.4
- Phytotoxicity Index (scale 0-9) (L3 (cmsGM40, A122T line), 1x=80 g ai/ha): 0.4
- Phytotoxicity Index (scale 0-9) [5]: 0.4
- plant height [5]: 92.0 % of untreated
- Phytotoxicity Index (scale 0-9) (L3 (cmsGM40, A122T line), 3x=240 g ai/ha): 0.5
- Phytotoxicity Index (scale 0-9) [6]: 1.0
- biomass accumulation (dry) [6]: 75.0 % of untreated
- Phytotoxicity Index (scale 0-9) (L3 (cmsGM40, A122T line), 5x=400 g ai/ha): 2.0
- Phytotoxicity Index (scale 0-9) (L3 (cmsGM40, A122T line), 6x=480 g ai/ha): 2.5
- Phytotoxicity Index (scale 0-9) [7]: 0.0
- biomass accumulation (dry) [7]: 100.0 % of untreated
- plant height [7]: 100.0 % of untreated
- Phytotoxicity Index (scale 0-9) (L4 (A122T line), 1x=80 g ai/ha): 0.0
- plant height (L4 (A122T line), 1x=80 g ai/ha): 100.0 % of untreated
- Phytotoxicity Index (scale 0-9) [8]: 0.0
- biomass accumulation (dry) [8]: 97.0 % of untreated
- Phytotoxicity Index (scale 0-9) [9]: 0.0
- plant height [9]: 97.0 % of untreated
- Phytotoxicity Index (scale 0-9) (L4 (A122T line), 4x=320 g ai/ha): 0.0
- Phytotoxicity Index (scale 0-9) (L4 (A122T line), 5x=400 g ai/ha): 0.0
- Phytotoxicity Index (scale 0-9) (L4 (A122T line), 6x=480 g ai/ha): 0.5
- Phytotoxicity Index (scale 0-9) (L5 (WT susceptible), 0.5x=40 g ai/ha): 9
- Phytotoxicity Index (scale 0-9) [10]: 9
- biomass accumulation (dry) [10]: 15.0 % of untreated
- Phytotoxicity Index (scale 0-9) [11]: 9
- biomass accumulation (dry) [11]: 15.0 % of untreated
- Phytotoxicity Index (scale 0-9) [12]: 9
- biomass accumulation (dry) [12]: 15.0 % of untreated
- Phytotoxicity Index (scale 0-9) [13]: 9
- biomass accumulation (dry) [13]: 15.0 % of untreated
- Phytotoxicity Index (scale 0-9) [14]: 9
- biomass accumulation (dry) [14]: 15.0 % of untreated
- Phytotoxicity Index (scale 0-9) [15]: 9
- biomass accumulation (dry) [15]: 15.0 % of untreated
- Height reduction (heterozygotes A122T/A205V, 0.5x): 0.6%
- Biomass weight reduction (0.5x): 0.3%
- Biomass weight reduction (6x): 33%
- Phytotoxicity Index (scale 0-9) (mean of A122T genotypes (H2,L3,L4), 0.5x=40 g ai/ha): 0.3
- Phytotoxicity Index (scale 0-9) (mean of A122T genotypes (H2,L3,L4), 1x=80 g ai/ha): 0.3
- Phytotoxicity Index (scale 0-9) [16]: 0.3
- plant height [16]: 98.0 % of untreated
- Phytotoxicity Index (scale 0-9) [17]: 0.3
- biomass accumulation (dry) [17]: 90.0** % of untreated
- Phytotoxicity Index (scale 0-9) (mean of A122T genotypes (H2,L3,L4), 4x=320 g ai/ha): 0.5
- Phytotoxicity Index (scale 0-9) (mean of A122T genotypes (H2,L3,L4), 5x=400 g ai/ha): 0.8
- Phytotoxicity Index (scale 0-9) (mean of A122T genotypes (H2,L3,L4), 6x=480 g ai/ha): 1.2
- Phytotoxicity Index (scale 0-9) (mean of A122T/A205V genotypes (H3,H4), 0.5x=40 g ai/ha): 0.5
- Phytotoxicity Index (scale 0-9) (mean of A122T/A205V genotypes (H3,H4), 1x=80 g ai/ha): 0.5
- Phytotoxicity Index (scale 0-9) (mean of A122T/A205V genotypes (H3,H4), 2x=160 g ai/ha): 0.5
- Phytotoxicity Index (scale 0-9) (mean of A122T/A205V genotypes (H3,H4), 3x=240 g ai/ha): 0.5
- Phytotoxicity Index (scale 0-9) (mean of A122T/A205V genotypes (H3,H4), 4x=320 g ai/ha): 0.5
- Phytotoxicity Index (scale 0-9) (mean of A122T/A205V genotypes (H3,H4), 5x=400 g ai/ha): 0.6
- Phytotoxicity Index (scale 0-9) (mean of A122T/A205V genotypes (H3,H4), 6x=480 g ai/ha): 1
- Phytotoxicity Index (scale 0-9) (mean of A205V genotypes (H1,L1,L2), 2x=160 g ai/ha): 2.2*
- Phytotoxicity Index (scale 0-9) (mean of A205V genotypes (H1,L1,L2), 3x=240 g ai/ha): 5.1**
- Phytotoxicity Index (scale 0-9) (mean of A205V genotypes (H1,L1,L2), 4x=320 g ai/ha): 7.4**
- Phytotoxicity Index (scale 0-9) (mean of A205V genotypes (H1,L1,L2), 5x=400 g ai/ha): 8.2**
- Phytotoxicity Index (scale 0-9) (mean of A205V genotypes (H1,L1,L2), 6x=480 g ai/ha): 8.2**
